In PMC6429459, “The HslV Protease from Leishmania major and Its Activation by C-terminal HslU Peptides” (International Journal of Molecular Sciences, 2019):
Entries after “also recorded” stand apart in the source; their conditions may differ. Square brackets hold non-standard residues; d marks the D form. Peptide text beside a SMILES is read from it. * marks the point of attachment. AMC = Cc1cc(=O)oc2cc(N*)ccc12; Cbz = O=C(OCc1ccccc1)*; AEEA = NCCOCCOCC(=O)O

Assays:
recombinant LmHslV [1] = assay: LmHslV peptidase activation by HslU C-terminal peptides, substrate Z-EVNL-AMC (JMV4482); format: biochemical, Leishmania major; settings: for LmHslV activation relative to reference peptide 10 (LmC12-U2): LmHslV 75.2 nM, initial velocity normalised to 10 = 100%, Figure 3; for LmHslV activation, Ala-scan, D-scan and truncations, relative to LmC12-U2: LmHslV 2 μg, 30 min at 37 °C, JMV4482 (Z-EVNL-AMC) 100 μM, Figure 4
Description: (§1) Activity assay: The peptidase activity of recombinant LmHslV was assessed by measuring the fluorescence of AMC released after hydrolysis of the fluorogenic substrates Z-GGL-AMC or JMV4482 (Z-EVNL-AMC), 100 µM. LmHslV activation was obtained by addition of activating peptides (see type and concentration in the figure legends). Activity buffer: 25 mM Tris-HCl pH 8.0, 1 mM DTT, 0.5 mM EDTA and 5 mM MgCl2. Most of the experiments were performed in a final volume of 50 µL in black 96-well microplates (Fisher Scientific, Illkirch, France. Fluorescence was measured using a spectrofluorimeter (BIO-TEK Instrument, Inc., Winooski, VT, USA): filters 360/340 for excitation and 460/440 for emission.
Figure 3 Both peptides derived from the C-terminal end of either LmHslU1 or LmHslU2 and analogues from other microorganisms are able to support LmHslV activation. LmHslV (75,2nM) was incubated at 37 °C with the peptide substrate Z-EVNL-AMC (100 μM) in the presence of peptides 8–11 and 1–15 (500 μM). A scrambled version of LmC12-U2 (44) was also included. The fluorescence of the free AMC group, proportional to the activity of the sample, was measured at 2 min. intervals.
Figure 4 Sequence requirements for activation of LmHslV by C-terminal LmHslU2 peptides. (A) Alascan. Percentage of initial velocity relative to compound LmC12-U2. Fluorescence was measured for 30 min incubation at 37 °C of LmHslV (2 μg) with 100 μM JMV4482 (Z-EVNL-AMC) in the presence of 500 μM peptides. (B) D-scan. Percentage of initial velocity relative to compound LmC12-U2. Activity was measured as in (A). (C) Truncated peptides. Percentage of activity relative to compound LmC12-U2, measured as in (A).
Figure 5 Effect of conformational constraints on HslV activation by HslU C-terminal peptides. HslV activity was measured in the presence of various cyclic analogues of LmC12-U2 and LmC9-U2. Values are expressed as percentage of initial velocity relative to compound LmC12-U2.
Figure S3. Effect of LmC12-U2 dimerization. LmHslV has been incubated at 37°C for 30 min with […]
the substrate Z-EVNL-AMC (100µM). The fluorescence generated by the cleavage of the substrate was recorded at 5 min intervals. The dotted line represents the ratio at each time point between the fluorescence values obtained with the two peptides.
(also on this page, place not known: dimerization . ( 12), Di-C12 / C12 Fluorescence (arbitrary unit) Ratio)

[2] = Solubility in aqueous assay solutions (observation); settings: aqueous assay conditions, peptide concentrations in the millimolar range; in words
recombinant LmHslV [3] = assay: LmHslV peptidase activation by HslU C-terminal peptides, substrate Z-GGL-AMC; format: biochemical, Leishmania major; settings: in words; for Activation of LmHslV (AMC fluorescence liberated per minute): LmHslV 300 nM, 37 °C, Z-GGL-AMC 100 μM, peptide 2.2 mM, read every 15 min for 2 h, mean of two replicates, Figure 1
Description: as §1
Figure 1 Activation of LmHslV by HslU-derived peptides. (A) Activation of LmHslV by peptides corresponding to the 8 C-terminal residues of LmHslU1 (compound 1) and U2 (compound 4). LmHslV (300 nM) was incubated at 37 °C with the peptide substrate Z-GGL-AMC (100μM) in the presence of vehicle (left) or 2.2 mM of the peptides H-LmC8-U1 or Ac-LmC8-U2. The fluorescence of the free AMC group liberated by hydrolysis of the substrate, which is proportional to the proteolytic activity of the sample, was measured every 15 min for 2 h. The activity is calculated as fluorescence units liberated by the minute during the linear period of the assay. The values are the mean of two experimental replicates for a representative experiment; errors bars represent deviation from the mean of the values. (B) LmHslV can also be activated by octapeptides derived from the C-terminus of […] from E. coli. Assays were performed as in (A), using compounds 4 (Ac-LmC8-U2), 6 (H-EcC8-U) and 7 (Ac-EcC8-U).

LmHslV = assay: Degradation of fluorogenic substrates by LmC12-U2-activated LmHslV; format: biochemical, Leishmania major; settings: LmHslV 75.2 nM, 37 °C, substrate 100 μM, activating peptide LmC12-U2 500 μM; Figure 2; in words
Description: as §1
Figure 2 Degradation of different fluorogenic substrates by LmHslV. LmHslV (75.2 nM) was incubated at 37 °C with different fluorogenic substrates (100 μM) in the presence of the activating peptide LmC12-U2 (500 μM). The fluorescence of the free AMC group, proportional to the activity of the sample, was measured at 2 min. intervals. With each substrate, no activity was measured in the absence of activating peptide: for the sake of clarity, only the negative control values obtained with the substrate ZGGL-AMC are shown.

[4] = Circular dichroism, α-helix content from θ at 222 nm; format: physicochemical; settings: for Helicity%: 25 mM Tris-HCl pH 8.0, 20 °C, 100% helicity for θ = −36,000; for θmre at 222 nm: 25 mM Tris-HCl pH 8.0, around 200 μM peptide, 20 °C, 1 mm cuvette, 3 scans
Description: CD spectra (Figure S2) were recorded on a JASCO J-815 spectropolarimeter from 190 to 260 nm (data pitch of 0.1 nm, continuous scanning mode, 200 nm/min, 3 scans) at 20 °C, using a 1 mm path length cuvette. Baseline was corrected by subtracting the background from the sample spectrum.
Peptides were solubilised in 50 mM Tris-HCl, pH 8.0 buffer at an estimated concentration of 400 μM according to their apparent molecular mass (i.e. M + xTFA with x = number of basic groups). The solutions were then diluted twice (25 mM Tris and around 200 μM peptides final concentrations) with: […]

[5] = 37 °C, Z-EVNL-AMC 100 μM, peptide 500 μM, in words

1,2,3-Triazole-1,4 = [CH2CH2CO-(O2Oc)3-Leu-Gln-Lys-Asn-Val-Asn-Leu-Ala-Lys-Tyr-Leu-Leu-OH]2 [Compound 12]
HslV activity with dimer relative to monomer 10 (recombinant LmHslV [1]; LmHslV, 37 °C, 30 min, peptide 550 μM, Z-EVNL-AMC 100 μM, Figure S3, in words): about twice that reached with the monomer

CC[C@H](C)[C@H](NC(=O)[C@H](Cc1ccccc1)NC(=O)[C@H](CCCCN)NC(=O)[C@H](CCCCN)NC(=O)[C@@H](NC(=O)[C@H](CC(=O)O)NC(=O)[C@@H](NC(=O)[C@H](CCCCN)NC(=O)[C@H](CCCCN)NC(=O)[C@@H](NC(=O)[C@H](CCSC)NC(=O)COCCOCCNC(=O)[C@H](N)CCCNC(=N)N)C(C)C)C(C)C)[C@@H](C)CC)C(=O)N[C@@H](CC(C)C)C(=O)O [Compound 8] (H-[dR][AEEA]MVKKVDIKKFIL-OH)
Solubility of activating peptide [2]: significantly more soluble than C8-U1

Ac-EDLSRFIL-OH [Compound 7]
Activation of LmHslV (AMC fluorescence liberated per minute) (recombinant LmHslV [3]): also found to activate LmHslV

Ac-VNLAKYLL-OH [Compound 4]
Activation of LmHslV (AMC fluorescence liberated per minute) (recombinant LmHslV [3]): robust activation

Cbz-Gly-Gly-Leu-{AMC}
Degradation of fluorogenic substrate by activated LmHslV (LmHslV): degraded by peptide-activated LmHslV

H-EDLSRFIL-OH [Compound 6]
Activation of LmHslV (AMC fluorescence liberated per minute) (recombinant LmHslV [3]): also found to activate LmHslV

H-VDIKKFIL-OH [Compound 1]
Activation of LmHslV (AMC fluorescence liberated per minute) (recombinant LmHslV [3]): able to activate the protease

H-arg-O2OC-Asn-Val-Asn-Leu-Ala-Lys-Tyr-Leu-Leu-OH [Compound 29]
Helicity% ([4]; 0% TFE): 5%
θmre at 222 nm ([4]; 0% TFE): −1711 deg.cm^2.dmol^−1
Helicity% ([4]; 25% TFE): 11%
θmre at 222 nm ([4]; 25% TFE): −4130 deg.cm^2.dmol^−1
Helicity% ([4]; 50% TFE): 13%
θmre at 222 nm ([4]; 50% TFE): −4733 deg.cm^2.dmol^−1

H-arg-O2Oc-Asn-Leu-Tyr-Lys-Leu-Val-Gln-Leu-Leu-Asn-Lys-Ala-OH [Compound 44]
LmHslV activation relative to reference peptide 10 (LmC12-U2) (recombinant LmHslV [1]; [5]): no activity

H-arg-O2Oc-Leu-Gln-Lys-Asn-Val-Asn-Leu-Ala-Lys-Phe-Leu-Leu-OH [Compound 11]
LmHslV activation relative to reference peptide 10 (LmC12-U2) (recombinant LmHslV [1]; [5]): decreased activity; also recorded: reverse effect

H-arg-O2Oc-Leu-Gln-Lys-Asn-Val-Asn-Leu-Ala-Lys-Tyr-Leu-Leu-OH [Compound 10]
Activation of LmHslV compared with LmC8-U2 peptide 4 (recombinant LmHslV [3]; substrate Z-GGL-AMC, preliminary experiments): much more efficiently than the LmC8-U2 peptide 4
LmHslV activation, Ala-scan, D-scan and truncations, relative to LmC12-U2 (recombinant LmHslV [1]; peptide 500 μM, in words): by far the most potent activator

H-arg-O2Oc-Leu-Gln-Lys-Asn-Val-Asn-Leu-ala-Lys-Tyr-Leu-Leu-OH [Compound 24]
LmHslV activation, Ala-scan, D-scan and truncations, relative to LmC12-U2 (recombinant LmHslV [1]; peptide 500 μM, in words): residual activity
Decrease in activity relative to LmC12-U2 (recombinant LmHslV [1]; Z-EVNL-AMC 100 μM, peptide 500 μM, D-scan): 80%
